# Structures can show the parent of a compound that is named as a salt.
# Test system: clot lysis (fibrinolysis) in diluted human citrated plasma, tPA-induced
# Assay: Plasma-based clot lysis assay (5%)
# Type: biochemical
# Details: human citrated platelet-poor plasma 5%, fibrinogen 3 μM, CaCl2 10 mM, tPA 0.2 nM, 37° C., OD at 405 nm
# How it was run: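 Compounds added to 5% platelet-poor citrated human plasma with 3 μM fibrinogen in 20 mM HEPES, 150 mM NaCl, 0.01% Brij, pH 7. Clotting and lysis started with 10 mM CaCl2 and 0.2 nM tPA at 37° C. IC50 derived by comparing time courses with a blank control reaction.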
row,Structure (SMILES),IC50
1,"Cc1nn2c(C3CCNCC3)cc(=O)[nH]c2c1C(=O)N1CCSCC1 [Example 397, 2-methyl-7-(piperidin-4-yl)-3-(thiomorpholin-4-ylcarbonyl)pyrazolo [1,5-a]pyrimidin-5(4H)-one hydrochloride]",36 nM
2,"Cc1nn2c(C3CCNCC3)cc(=O)[nH]c2c1C(=O)N1CCCCC1 [Example 399, 2-methyl-7-(piperidin-4-yl)-3-(piperidin-1-ylcarbonyl) pyrazolo[1,5-a] pyrimidin-5(4H)-one hydrochloride]",42 nM
3,"Cc1nn2c(C3CCNCC3)cc(=O)[nH]c2c1C(=O)N(C)C1CCC1 [Example 401, N-cyclobutyl-N,2-dimethyl-5-oxo-7-(piperidin-4-yl)-4,5-dihydro-pyrazolo[1,5-a] pyrimidine-3-carboxamide hydrochloride]",34 nM
4,"COCC1CCCN(C(=O)c2c(C)nn3c(C4CCNCC4)cc(=O)[nH]c23)C1 (stereo not shown) [Example 402, 3-{[3-(methoxymethyl)piperidin-1-yl]carbonyl}-2-methyl-7-(piperidin-4-yl) pyrazolo[1,5-a] pyrimidin-5(4H)-one hydrochloride]",40 nM
5,"Cc1nn2c(C3CCNCC3)cc(=O)[nH]c2c1C(=O)N1CCC2CCCCC2C1 (stereo not shown) [Example 405, 2-methyl-3-(octahydro-isoquinolin-2(1H)-ylcarbonyl)-7-(piperidin-4-yl) pyrazolo[1,5-a] pyrimidin-5(4H)-one hydrochloride]",37 nM
6,"CCCN(CC1CC1)C(=O)c1c(C)nn2c(C3CCNCC3)cc(=O)[nH]c12 [Example 406, N-(cyclopropyl-methyl)-2-methyl-5-oxo-7-(piperidin-4-yl)-N-propyl-4,5-dihydropyrazolo [1,5-a]pyrimidine-3-carboxamide hydrochloride]",37 nM
7,"Cc1nn2c(C3CCNCC3)cc(=O)[nH]c2c1C(=O)N1CCCC(C(C)C)C1 (stereo not shown) [Example 408, 3-[(3-isopropyl-piperidin-1-yl)carbonyl]-2-methyl-7-(piperidin-4-yl) pyrazolo[1,5-a] pyrimidin-5(4H)-one hydrochloride]",34 nM
8,"Cc1nn2c(C3CCNCC3)cc(=O)[nH]c2c1C(=O)N1Cc2ccccc2C1 [Example 410, 3-(1,3-dihydro-2H-isoindol-2-ylcarbonyl)-2-methyl-7-(piperidin-4-yl) pyrazolo[1,5-a] pyrimidin-5(4H)-one hydrochloride]",45 nM
9,"Cc1nn2c(C3CCNCC3)cc(=O)[nH]c2c1C(=O)N1CCN2CCCC2C1 (stereo not shown) [Example 411, 3-(hexahydro-pyrrolo[1,2-a]pyrazin-2(1H)-ylcarbonyl)-2-methyl-7-(piperidin-4-yl) pyrazolo[1,5-a] pyrimidin-5(4H)-one hydrochloride]",540 nM
10,"Cc1nn2c(C3CCNCC3)cc(=O)[nH]c2c1C(=O)N1CC2CCCCC2C1 (stereo not shown) [Example 413, 2-methyl-3-(octahydro-2H-isoindol-2-ylcarbonyl)-7-(piperidin-4-yl) pyrazolo[1,5-a] pyrimidin-5(4H)-one hydrochloride]",35 nM
11,"Cc1nn2c(C3CCNCC3)cc(=O)[nH]c2c1C(=O)N1CCCC1 [Example 415, 2-methyl-7-(piperidin-4-yl)-3-(pyrrolidin-1-ylcarbonyl) pyrazolo[1,5-a] pyrimidin-5(4H)-one hydrochloride]",61 nM
12,"Cc1nn2c(C3CCNCC3)cc(=O)[nH]c2c1C(=O)N1CCCC(C)(C)C1 [Example 420, 3-[(3,3-dimethyl-piperidin-1-yl)carbonyl]-2-methyl-7-(piperidin-4-yl) pyrazolo[1,5-a] pyrimidin-5(4H)-one hydrochloride]",47 nM
13,"CCN(C)C(=O)c1c(C)nn2c(C3CCNCC3)cc(=O)[nH]c12 [Example 424, N-ethyl-N,2-dimethyl-5-oxo-7-(piperidin-4-yl)-4,5-dihydro-pyrazolo[1,5-a] pyrimidine-3-carboxamide hydrochloride]",78 nM

# Further lines, results first:
row,IC50,Structure (SMILES)
1,30 nM,"O=c1cc(C2CCNCC2)n2ncc(-c3noc(C4CCC(F)(F)CC4)n3)c2[nH]1 [Example 393, 3-(5-(4,4-difluorocyclohexyl)-1,2,4-oxadiazol-3-yl)-7-(piperidin-4-yl)pyrazolo[1,5-a]pyrimidin-5(4H)-one hydrochloride]"
2,29 nM,"COCc1nc(-c2cnn3c(C4CCNCC4)cc(=O)[nH]c23)no1 [Example 394, 3-(5-(methoxymethyl)-1,2,4-oxadiazol-3-yl)-7-(piperidin-4-yl)pyrazolo[1,5-a]pyrimidin-5(4H)-one hydrochloride]"
3,27 nM,"COCCCc1nc(-c2cnn3c(C4CCNCC4)cc(=O)[nH]c23)no1 [Example 395, 3-(5-(3-methoxypropyl)-1,2,4-oxadiazol-3-yl)-7-(piperidin-4-yl)pyrazolo[1,5-a]pyrimidin-5(4H)-one hydrochloride]"
4,34 nM,"COC[C@@H]1CCCN1C(=O)c1c(C)nn2c(C3CCNCC3)cc(=O)[nH]c12 [Example 398, 3-{[(2S)-2-(methoxymethyl)pyrrolidin-1-yl]carbonyl}-2-methyl-7-(piperidin-4-yl) pyrazolo[1,5-a] pyrimidin-5(4H)-one hydrochloride]"
5,32 nM,"CCN(C(=O)c1c(C)nn2c(C3CCNCC3)cc(=O)[nH]c12)C1CC1 [Example 400, N-cyclopropyl-N-ethyl-2-methyl-5-oxo-7-(piperidin-4-yl)-4,5-dihydro-pyrazolo[1,5-a] pyrimidine-3-carboxamide hydrochloride]"
6,33 nM,"Cc1nn2c(C3CCNCC3)cc(=O)[nH]c2c1C(=O)N1CCc2ccccc21 [Example 412, 3-(2,3-dihydro-1H-indol-1-ylcarbonyl)-2-methyl-7-(piperidin-4-yl) pyrazolo[1,5-a] pyrimidin-5(4H)-one hydrochloride]"
7,31 nM,"Cc1nn2c(C3CCNCC3)cc(=O)[nH]c2c1C(=O)N1CCC(C)CC1 [Example 416, 2-methyl-3-[(4-methyl-piperidin-1-yl)carbonyl]-7-(piperidin-4-yl) pyrazolo[1,5-a] pyrimidin-5(4H)-one hydrochloride]"
8,24 nM,"Cc1nn2c(C3CCNCC3)cc(=O)[nH]c2c1C(=O)NC1CCCC1 [Example 417, N-cyclopentyl-2-methyl-5-oxo-7-(piperidin-4-yl)-4,5-dihydro-pyrazolo[1,5-a] pyrimidine-3-carboxamide hydrochloride]"
9,31 nM,"Cc1nn2c(C3CCNCC3)cc(=O)[nH]c2c1C(=O)NCC(C)C [Example 418, N-isobutyl-2-methyl-5-oxo-7-(piperidin-4-yl)-4,5-dihydro-pyrazolo[1,5-a] pyrimidine-3-carboxamide hydrochloride]"
10,30 nM,"Cc1nn2c(C3CCNCC3)cc(=O)[nH]c2c1C(=O)N1CC(C)CC(C)C1 (stereo not shown) [Example 421, 3-[(3,5-dimethyl-piperidin-1-yl)carbonyl]-2-methyl-7-(piperidin-4-yl) pyrazolo[1,5-a] pyrimidin-5(4H)-one hydrochloride]"
11,23 nM,"Cc1nn2c(C3CCNCC3)cc(=O)[nH]c2c1C(=O)NC1CCC1 [Example 422, N-cyclobutyl-2-methyl-5-oxo-7-(piperidin-4-yl)-4,5-dihydro-pyrazolo[1,5-a] pyrimidine-3-carboxamide hydrochloride]"
12,33 nM,"CCN(Cc1ccccc1)C(=O)c1c(C)nn2c(C3CCNCC3)cc(=O)[nH]c12 [Example 423, N-benzyl-N-ethyl-2-methyl-5-oxo-7-(piperidin-4-yl)-4,5-dihydro-pyrazolo[1,5-a] pyrimidine-3-carboxamide hydrochloride]"
